Data reported in patent US8859508B2, “Application of 5-methyl-1,3-benzenediol or derivatives thereof in the preparation of medicines and functional foods for treatment or prevention of depression” (Kunming Institute of Botany, Chinese Academy of Sciences, priority 2007, dated 2014).

Experiments:
[1] = test system: Kunming mice; test: Forced swim test (FST) in mice; details: FST mice
[2] = test system: DD model mice; test: FST in constant darkness (DD) model mice; assay type: in vivo, mouse; details: DD mice, positive control, 15 mg/kg
Procedure: (§1) Kunming mice (Certificate Number: A4CXK(Chuan)2003-16) from the Institute of Experimental Animals, People's Hospital of Sichuan Province, were used. They were 3-4 weeks old at the beginning of the experiments and weighed 25-30 g. ORG was prepared as described in Example 1. Animals were divided into experimental groups with different doses, vehicle control groups, and an imipramine group (Sigma, Batch No. 106k1588) as positive control.
(§2) DD model in mice: Mice were kept under 24 h continuous dark conditions. The replacement of padding, addition of food and water, and other operations were undertaken in the condition that the intensity of red light was less than 1.0 lux. The period of this condition lasted for 28 days. In the last week, ORG was administered orally once a day for 1 week. The FST and TST were carried out 30 min after the last administration. Methods and data analysis were as described above.

[3] = test system: DD model mice; test: TST in constant darkness (DD) model mice; assay type: in vivo, mouse; details: DD mice, positive control, 15 mg/kg
Procedure: as §1, §2

[4] = test system: CMS model mice; test: TST in chronic unpredictable mild stress (CMS) model mice; assay type: in vivo, mouse; details: CMS mice, positive control, 15 mg/kg
Procedure: as §1, with “of” for “of the”, “experiment” for “experimental”, “doses, a” for “doses,”, “group,” for “groups,”
(§3) CMS model: The chronic mild stresses that Kunming mice were subjected to were reversal of circadian rhythm, continuous light, cold, damp bedding, tilt cages, food and water restriction, and restraint. […] The stress period lasted for 8 weeks. In the last week, ORG was administered orally once a day for 7 consecutive days. The behavioral test was carried out 30 min after the last administration. The parameter tested was immobility time in the FST and TST in the CMS model mice. The methods of FST and TST and data analysis were as described above.

[5] = test system: Kunming mice; test: Tail suspension test (TST) in mice; details: TST mice, positive control, 15 mg/kg
[6] = test system: CMS model mice; test: FST in chronic unpredictable mild stress (CMS) model mice; assay type: in vivo, mouse; details: CMS mice, positive control, 15 mg/kg
Procedure: as §1, with “of” for “of the”, “experiment” for “experimental”, “doses, a” for “doses,”, “group,” for “groups,”
as §3

[7] = test system: SD model mice; test: FST in sleep deprivation (SD) model mice; assay type: in vivo, mouse; details: SD model mice, 24 h and 5 h before FST, 7.5 mg/kg
Procedure: as §1, with “experiment” for “experimental”, “doses, a” for “doses,”, “group,” for “groups,”, “1061c1588)” for “106k1588)”
SD model: A modified method with multiple platforms in a water environment was used to establish the SD model in mice. Mice on the platforms were free to eat and drink. However, if it fell asleep, it fell into the water because of the loss of muscle tone. The fallen animal climbed onto the platform again via a tilt pole which propped up the platforms. After 72 h of sleep deprivation, ORG was administered orally 24 h and 5 h before the FST started. The immobility time of animals were recorded. Methods and data analysis were as described above.

[8] = test system: Sprague-Dawley rats; test: Forced swim test (FST) in rats; assay type: in vivo, rat; details: positive control, 15 mg/kg
[9] = test system: Kunming mice; test: Elevated plus maze (EPM) test in mice; assay type: in vivo, mouse; details: positive control, 2 mg/kg
Procedure: as §1, with “experiment” for “experiments”, “drug administration” for “experimental”, “doses of ORG, a” for “doses,”, “group,” for “groups,”, “a diazepam” for “an imipramine”, “(Jinyao Ltd. Co.,” for “(Sigma,”
Elevated plus maze (EPM): The EPM had two open and two closed arms of equal size (30 cm long×5 cm wide). The two closed arms were connected by a central 5 cm×5 cm area. The whole maze was elevated to a height of 35 cm. ORG was administered i.p. 24 h and 5 h before the test started. Mice were individually placed in the center of the maze facing a closed arm. Each animal was tested for 5 min in a single session. The number of entrances into open arms, the number of entrances into closed arms, the total time spent in open arms, and the total time spent in closed arms were recorded; a standard of entry was defined as all limbs entering the arm. The number of entrances into open arms and time spent in open arms were the major indexes to evaluate the anxiety level of the animals, for the more entrances or time, the less the anxiety level.
(§4) Data analysis: The results of the test are expressed as mean±SEM. One-way ANOVA was used followed by the LSD test with SPSS 11 software. The significance level was set at P<0.05.

[10] = test system: Kunming mice; test: Morris water maze (MWM) in mice; assay type: in vivo, mouse
Procedure: Kunming mice (Certificate Number: A4CXK(Chuan)2003-16) from the Institute of Experimental Animals, People's Hospital of Sichuan Province, were used. They were 3-4 weeks old at the beginning of the experiment and weighed 25-30 g. ORG was prepared as described in Example 1. Animals were divided into drug administration groups with fluoxetine or different doses of ORG and a vehicle control group. The drug administration groups received 1.75 mg/kg or 3.5 mg/kg of ORG or 15 mg/kg of fluoxetine. Animals received a single i.p. injection of drug or vehicle 30 min either after training every day or 30 min before the retention test on day 8.
Morris water maze: The MWM was performed in a circular pool (100 cm in diameter and 36 cm in depth) with a hidden platform (10 cm×10 cm) that was approximately 1 cm below the water surface. The pool was surrounded by yellow curtains with different shaped markers hanging in each quadrant. The time spent to find the hidden platform and the trajectory of the mouse were recorded by computer. From days 1 to 7, mice were placed in the pool to find the fixed hidden platform. On day 8, the platform was removed and the time that the mouse spent in the target quadrant was counted in 1 min of free swimming.
as §4

[11] = test system: serum corticosterone; test: Serum corticosterone level (radioimmunoassay), non-stressed and elevated platform stressed rats; assay type: in vivo, rat
[12] = positive control, 15 mg/kg (Table 2)
[13] = i.p. 24 h and 5 h before test, 10 mg/kg (Table 5)

`Cc1cc(O)cc(O)c1` [OR, orcinol] was tested, and the “Immobility time (s) (mean ± SEM)” value ([1]; i.p. 24 h and 5 h before test, 10 mg/kg (Table 4)) was 82.40 ± 10.64 s.
In the case of `CN(C)CCCN1c2ccccc2CCc2ccccc21` [Imipramine, imipramine, reference compound], the “Immobility time (s) (mean ± SEM)” value [2] is reported as 161.22 ± 13.08 s, the “Immobility time (s) (mean ± SEM)” value [3] is reported as 131.22 ± 10.61 s and the “Immobility time (s) (mean ± SEM)” value [4] is reported as 131.22 ± 10.61 s. The “Immobility time (s) (mean ± SEM)” value [5] was 105.65 ± 5.71 s, the “Immobility time (s) (mean ± SEM)” value [6] was 166.00 ± 13.84 s and the “Immobility time (s) (mean ± SEM)” value [7] was 150.27 ± 13.17 s. The “Immobility time (s) (mean ± SEM)” value [8] was 92.72 ± 7.09 s, the “Immobility time (s) (mean ± SEM)” value [1, 12] was 131.20 ± 3.91 s and the “Immobility time (s) (mean ± SEM)” value ([1]; positive control, 15 mg/kg (Table 4)) was 96.38 ± 12.04 s. For the same molecule, the “Immobility time (s) (mean ± SEM)” value ([1]; positive control, 15 mg/kg (Table 5)) was 146.00 ± 6.46 s.
`CN1C(=O)CN=C(c2ccccc2)c2cc(Cl)ccc21` [Diazepam, diazepam, reference compound] was tested, and the “Number of entries into open arms (mean ± SEM)” value [9] was 4.80 ± 0.77 and the “Total time spent in the open arms (s) (mean ± SEM)” value [9] was 46.90 ± 7.19 s.
`Cc1cc(O)cc(OC2OC(COC3OC(CO)C(O)C(O)C3O)C(O)C(O)C2O)c1` [ORGG, orcinol-1-O-[β-D-glucopyranosyl-(1→6)]-β-D-glucopyranoside] was tested, and the “Immobility time (s) (mean ± SEM)” value [1, 13] was 184.20 ± 11.29 s.
In the case of `COc1ccc(C(CN(C)C)C2(O)CCCCC2)cc1` (stereo not drawn) [Venlafaxine, venlafaxine, reference compound], the “Immobility time (s) (mean ± SEM)” value [5] is reported as 102.85 ± 9.34 s, the “Immobility time (s) (mean ± SEM)” value [8] is reported as 100.80 ± 9.84 s and the “Immobility time (s) (mean ± SEM)” value [1, 12] is reported as 134.28 ± 3.76 s.
For `CC(=O)Oc1cc(C)cc(OC(C)=O)c1` [OR-2Ac, 1,3-O-diacetylorcinol], the “Immobility time (s) (mean ± SEM)” value [1, 13] was 170.10 ± 6.37 s.
In the case of `CNCCC(Oc1ccc(C(F)(F)F)cc1)c1ccccc1` (stereo not drawn) [Fluoxetine, reference compound], the “Time spent in the right quadrant (s) (mean ± SEM)” value ([10]; i.p. 30 min before retrieval on day 8, 15 mg/kg) is reported as 29.44 ± 2.14 s, the “Time spent in the right quadrant (s) (mean ± SEM)” value ([10]; i.p. daily 30 min after training, retention test day 8, 15 mg/kg) is reported as 32.61 ± 2.20 s and the “Concentration of serum corticosterone (ng/ml) (mean ± SEM)” value (from here on “Concentration … (mean ± SEM)”) ([11]; non-stress rats, 15 mg/kg) is reported as 167.20 ± 31.35 ng/mL. For the same molecule, the “Concentration … (mean ± SEM)” value ([11]; non-stress rats, 30 mg/kg) was 178.14 ± 38.77 ng/mL, the “Concentration … (mean ± SEM)” value ([11]; stress rats, 15 mg/kg) was 331.35 ± 46.43 ng/mL and the “Concentration … (mean ± SEM)” value ([11]; stress rats, 30 mg/kg) was 324.58 ± 58.63 ng/mL.
